Test systems include EKVX NSCLC; HOP-92 NSCLC; MDA-N; NCI-H226 lung; SK-MEL-28 melanoma; SK-MEL-5 melanoma; SN12C renal; SNB-19 CNS; SR leukemia; T-47D breast.
Assay in all cases: growth of human tumour cells (NCI), 48 h

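Where inhibition never reached the appropriate level, the endpoint shown equals the highest concentration tested. Otherwise, values were interpolated linearly from a five-concentration, 48-hour dose response in 96-well plates. TGI denotes the concentration required for complete inhibition of growth.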

In the case of `CCCCn1c2c(n(CCCC)c1=S)-c1c(n(CCCC)c(=S)n1CCCC)SSc1c(n(CCCC)c(=S)n1CCCC)-c1c(n(CCCC)c(=S)n1CCCC)SSc1c(n(CCCC)c(=S)n1CCCC)-c1c(n(CCCC)c(=S)n1CCCC)SS2`, the TGI in the assay on EKVX NSCLC was above 50 µM; with HOP-92 NSCLC, 3.53 µM; with MDA-N it was above 46 µM; with NCI-H226 lung, above 38.4 µM; in the assay with SK-MEL-28 melanoma, above 50 µM; with SK-MEL-5 melanoma, above 36.6 µM. For the same molecule, the TGI is above 50 µM with SN12C renal, above 50 µM in the assay with SNB-19 CNS, above 50 µM in the assay with SR leukemia and 9.51 µM with T-47D breast.
`CCOC(=O)c1ccc(NCC#CCN2CCCCC2)cc1`: the TGI in the assay with EKVX NSCLC, in the assay on HOP-92 NSCLC, in the assay with MDA-N, with NCI-H226 lung, with SK-MEL-28 melanoma and with SK-MEL-5 melanoma was above 100 µM throughout. Also, the TGI in the assay with SN12C renal, with SNB-19 CNS, in the assay on SR leukemia and in the assay on T-47D breast was above 100 µM throughout.
Take `N#Cc1c(N)nc(Sc2ccccc2N)c(C#N)c1-c1ccc(Cl)cc1`: the TGI is above 56.1 µM with EKVX NSCLC; 53.1 µM in the assay on HOP-92 NSCLC; 40.2 µM in the assay on MDA-N; above 100 µM in the assay on NCI-H226 lung; above 100 µM in the assay with SK-MEL-28 melanoma; above 55 µM in the assay with SK-MEL-5 melanoma. The TGI in the assay on SN12C renal is 40.4 µM; in the assay with SNB-19 CNS, above 56.6 µM; in the assay with SR leukemia, above 40.5 µM; with T-47D breast it was 4.24 µM.
For the molecule `CCC(=O)Nc1ccc(N2C(=O)C(Cl)C2c2ccc(SC)cc2)cc1` (stereo not given), the TGI in the assay with EKVX NSCLC is above 100 µM; with HOP-92 NSCLC, above 100 µM; in the assay on MDA-N it was above 100 µM; with NCI-H226 lung, 98.1 µM; with SK-MEL-28 melanoma it was above 100 µM; in the assay with SK-MEL-5 melanoma, 79.8 µM. Further, the TGI in the assay on SN12C renal, with SNB-19 CNS, in the assay on SR leukemia and in the assay with T-47D breast was above 100 µM each time.
`COc1ccc(C(=O)/C=C/c2cc(O)c(O)c(F)c2F)c(OC)c1`: the TGI in the assay with EKVX NSCLC is above 100 µM; with HOP-92 NSCLC, above 100 µM; in the assay with MDA-N it was 80.3 µM; with NCI-H226 lung, 56.6 µM; in the assay with SK-MEL-28 melanoma it was above 100 µM; with SK-MEL-5 melanoma, 25.3 µM. Besides, the TGI is 32.2 µM with SN12C renal, above 100 µM with SNB-19 CNS, 26.8 µM in the assay with SR leukemia and above 100 µM with T-47D breast.

The values above are taken from PubChem BioAssay (NCI).
